# Test results reported in patent US9737512B2, “Methods and compositions for treating chronic pain” (THE BOARD OF REGENTS OF THE UNIVERSITY OF TEXAS SYSTEM, priority 2015, dated 2017).
# Columns and labels:
# [1] = test system: pancreatic cancer cell lines; details: cited from earlier work
# [2] = test system: ovalbumin-induced oral tolerance; details: daily 10 mg/kg IP or 50 mg/kg oral gavage; cited from earlier work
# [3] = test system: CFA-induced mechanical allodynia; assay: CFA-induced mechanical allodynia, von Frey test; assay type: in vivo, mice
# Experimental: FIG. 1. Effect of ESI-09 in CFA-induced inflammatory mechanical allodynia. (A) Mice (n=4/group) received 5 μl CFA intraplantarly in the hind paws and were treated with vehicle or ESI-09 20 mg/kg (n=4) daily by oral gavage for 6 days starting immediately after CFA injection. Mechanical allodynia was quantified with von Frey Hairs using the up and down method at 24 hours after ESI treatment. (B) CFA-induced mechanical allodynia in WT, heterozygous, and homozygous Epac1-knockout mice. The sensitivity to mechanical stimulation was followed over time in wild-type (WT, n=3), Epac1^+/− (HE, n=6) and Epac1^−/− (HO, n=5) mice after intraplantar injection of 5 μl CFA. […] (D) Dose-response curve for the effect of ESI-09 (5, 20, or 50 mg/kg). Treatment was started on the 3rd day after CFA administration (n=4/group) (E) Mechanical allodynia was measured in WT mice with 6 days treatments of ESI-09 20 (n=3) and 50 mg/kg (n=4) to control for a potential effect on baseline mechanical sensitivity. Data are expressed as 50% withdrawal threshold in grams calculated as described in the methods section and represent mean±SEM. […] In FIG. 1B, *p<0.05, ** p<0.01 for WT versus HO, #p<0.05, ##P<0.01 for WT versus HE, +p<0.05, ++p<0.01 for HE versus HO. In FIG. 1D, **p<0.01 and ##p<0.01 are ESI-09 50 mg/kg and ESI-09 20 mg/kg compared to the Vehicle treated mice.
# To determine whether the Epac inhibitor ESI-09 can be used to treat inflammatory pain, the CFA model was used. CFA was administered intraplantarly and mice were treated with ESI-09 20 mg/kg daily by oral gavage for 6 days starting immediately after injection of CFA. Mechanical allodynia was examined using the von Frey test.
# ESI-09 20 mg/kg was administered orally three days after CFA. […] The effect of ESI-09 was dose-dependent (FIG. 1D). […] The beneficial effect of ESI-09 was detectable until at least 24 hours after the last dose. No effect of daily oral administration of 50 mg/kg ESI-09 on mechanical sensitivity in saline treated control mice was observed ([…]).
# [4] = test system: paclitaxel-induced mechanical allodynia; assay: Paclitaxel (chemotherapy)-induced mechanical allodynia, von Frey; assay type: in vivo, mice
# Experimental: FIG. 4. Effect of ESI-09 on chemotherapy-induced mechanical allodynia. Mice (n=5/group) were treated with paclitaxel (10 mg/kg, Monday, Wednesday and Friday) for two weeks. ESI-09 (20 mg/kg) or vehicle was given by oral gavage for 6 days starting on the first day (A) or 10 days (B) after completion of paclitaxel treatment. The sensitivity to mechanical stimulation was determined in wild-type (n=5) and Epac1−/− (n=4) in the same paclitaxel model (C). Mechanical allodynia was monitored by von Frey hair using the up and down method. Data are expressed as means±SEM. *p<0.05, ** p<0.01.
# Chemotherapy-induced peripheral neuropathy is a frequent side effect of cancer treatment, and currently there are no FDA-approved drugs to treat or prevent chemotherapy-induced neuropathy. The model of paclitaxel-induced mechanical allodynia to investigate the potential effect of ESI-09 on chemotherapy-induced neuropathy. Mice were treated with three doses (10 mg/kg/dose) of paclitaxel per week for 2 weeks. Administration of ESI-09 was started on the first day after completion of paclitaxel treatment when there was clear allodynia present. Mice were treated daily with ESI-09 (20 mg/kg) or vehicle by oral gavage for 6 days. […] The beneficial effect of treatment was detectable until 72 hours after the last dose of ESI-09. In a second set of experiments, ESI-09 treatment was delayed until 10 days after the completion of paclitaxel treatment.
# [5] = test system: PKA; details: at 25 μM; cited from earlier work
# [6] = test system: rickettsioses; details: daily 10 mg/kg IP or 50 mg/kg oral gavage, mice; cited from earlier work
# [7] = test system: pancreatic cell lines; details: cited from earlier work
# [8] = biological target: T1, EPAC2 (Mus musculus, UniProt Q9EQZ6); details: cited from earlier work
# T1 sequence (Q9EQZ6 1-1011): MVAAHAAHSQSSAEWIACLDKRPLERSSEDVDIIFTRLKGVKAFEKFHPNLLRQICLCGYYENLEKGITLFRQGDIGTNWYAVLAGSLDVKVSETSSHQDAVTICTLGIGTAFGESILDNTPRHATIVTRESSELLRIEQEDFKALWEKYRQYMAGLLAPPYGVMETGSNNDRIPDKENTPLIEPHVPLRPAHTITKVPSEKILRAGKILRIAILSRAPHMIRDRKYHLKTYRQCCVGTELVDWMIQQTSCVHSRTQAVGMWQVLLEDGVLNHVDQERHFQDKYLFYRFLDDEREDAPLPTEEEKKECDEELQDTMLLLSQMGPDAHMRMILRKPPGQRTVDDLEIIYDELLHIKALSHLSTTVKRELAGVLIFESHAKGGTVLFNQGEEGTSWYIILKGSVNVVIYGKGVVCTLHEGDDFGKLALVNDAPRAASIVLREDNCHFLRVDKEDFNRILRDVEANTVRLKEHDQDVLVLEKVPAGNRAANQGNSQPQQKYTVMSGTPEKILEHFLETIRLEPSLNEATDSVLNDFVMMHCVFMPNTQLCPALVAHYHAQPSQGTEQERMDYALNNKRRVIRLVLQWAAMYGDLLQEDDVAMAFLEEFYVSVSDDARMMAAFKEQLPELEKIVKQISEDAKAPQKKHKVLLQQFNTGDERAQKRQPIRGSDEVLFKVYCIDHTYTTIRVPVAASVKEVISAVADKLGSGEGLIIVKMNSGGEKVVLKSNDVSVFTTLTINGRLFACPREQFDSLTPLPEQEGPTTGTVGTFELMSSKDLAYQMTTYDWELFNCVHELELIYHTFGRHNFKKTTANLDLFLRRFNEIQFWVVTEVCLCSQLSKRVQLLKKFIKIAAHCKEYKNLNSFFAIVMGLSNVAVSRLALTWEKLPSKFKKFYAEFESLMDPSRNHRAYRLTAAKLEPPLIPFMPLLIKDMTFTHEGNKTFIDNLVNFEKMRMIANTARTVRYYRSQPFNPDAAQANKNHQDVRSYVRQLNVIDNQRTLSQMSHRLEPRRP
# [9] = test system: SNI-induced mechanical allodynia; assay: Spared nerve injury (SNI)-induced mechanical allodynia, von Frey; assay type: in vivo, mice
# Experimental: FIG. 3. Effect of ESI-09 on Spared nerve injury (SNI)-induced mechanical allodynia. Spared nerve injury was performed on WT mice and mice were treated daily with ESI-09 (50 mg/kg) or vehicle by oral gavage for 6 days starting on the 3rd day after SNI. Mechanical allodynia was monitored in (A) ipsi- and (B) contralateral paw using von Frey hairs and the up and down method at 24 hours after ESI-treatment (n=7 per group). Data are expressed as 50% paw withdrawal thresholds calculated as described in the methods section and represent mean±SEM. n=7/group. *p<0.05, **p<0.01 vs. vehicle group.
# It has been shown that EPAC1−/− mice are protected against neuropathic pain in a model of nerve injury. The effect of ESI-09 in the spared nerve injury (SNI) model of chronic neuropathic pain was examined. […] As expected, mice treated with vehicle developed unilateral mechanical allodynia ([…]). […] The beneficial effect of ESI-09 was maintained for 48 hours after the last dose.
# [10] = test system: CFA-induced heat hyperalgesia; assay: CFA-induced heat hyperalgesia, Hargreaves test; assay type: in vivo, mice
# Experimental: FIG. 2. Effect of ESI-09 on CFA-induced heat hyperalgesia. (A) Mice (n=4/group) received 5 μl CFA intraplantarly in the hind paws and were treated with vehicle or ESI-09 20 mg/kg (n=4) daily by oral gavage for 6 days starting after CFA injection. Heat hyperalgesia was determined using the Hargreaves test and is expressed as heat-withdrawal latency in seconds. (B) CFA-induced heat hyperalgesia in WT and Epac1−/− mice. (C) Heat sensitivity of saline treated mice with 20 mg/kg ESI-09. Data represent mean±SEM (n=4 per group).
# Intraplantar administration of CFA also induces significant heat hyperalgesia (FIG. 2A). However, no effect of ESI-09 (20 mg/kg) on heat hyperalgesia was detected (FIG. 2A). Consistently, CFA-induced heat hyperalgesia was not different between WT and Epac1−/− mice.
# [11] = 50 mg/kg oral gavage daily 6 days, starting 3 days after SNI
smiles,measurement,setting,value
"CC(C)(C)c1cc(C(=O)/C(C#N)=N/Nc2cccc(Cl)c2)no1 [ESI-09, 3-(5-tert-Butyl-isoxazol-3-yl)-2-[(3-chlorophenyl)-hydrazono]-3-oxo-propionitrile]",migration of pancreatic cancer cell lines,[1],inhibits
same,ovalbumin-induced oral tolerance (recapitulates EPAC1 knockout phenotype),[2],compromising ovalbumin-induced oral tolerance
same,CFA-induced mechanical allodynia,"[3]; 5 mg/kg (lowest dose), started 3rd day after CFA",did not observe an effect
same,CFA-induced mechanical allodynia,"[3]; 20 mg/kg daily oral gavage 6 days, starting immediately after CFA",strongly inhibited
same,time inhibition is maintained after administration,"[3]; 20 mg/kg oral, started three days after CFA",at least 24 h
same,inhibition of CFA-induced mechanical allodynia at 2 hours,"[3]; 20 mg/kg oral, started three days after CFA, 2 hours after administration",Partial inhibition
same,inhibition of CFA-induced mechanical allodynia at 6 hours,"[3]; 20 mg/kg oral, started three days after CFA, 6 hours after administration",fully developed
same,CFA-induced mechanical allodynia,"[3]; 20 mg/kg, started 3rd day after CFA",significantly reduced
same,mechanical sensitivity in saline treated control mice,[3]; 50 mg/kg daily oral,No effect
same,CFA-induced mechanical allodynia,"[3]; 50 mg/kg, started 3rd day after CFA",significantly reduced
same,dose dependence of effect on CFA-induced mechanical allodynia,"[3]; 5, 20 or 50 mg/kg, started 3rd day after CFA",dose-dependent
same,time beneficial effect detectable after the last dose,[3]; CFA model,at least 24 hours
same,mechanical sensitivity of control mice,[3]; ESI-09 given to control mice (no CFA),did not have any effect
same,paclitaxel-induced mechanical allodynia,"[4]; 20 mg/kg oral gavage daily 6 days, started first day after completion of paclitaxel",almost completely rescued
same,time beneficial effect detectable after the last dose,"[4]; paclitaxel model, 20 mg/kg",72 h
same,"paclitaxel-induced mechanical allodynia, later phase",[4]; treatment delayed until 10 days after completion of paclitaxel,significantly inhibited
same,activity against PKA,[5],no activity
same,protection from lethal rickettsioses (recapitulates EPAC1 knockout phenotype),[6],protecting mice from lethal rickettsioses
same,insulin secretion,[7],blocks
same,phosphorylation of Akt,[7],blocks
same,IC50,[8],1.4 µM
same,"SNI-induced mechanical allodynia, ipsilateral paw",[9]; [11],almost completely reversed
same,"normal mechanical sensitivity, contralateral paw",[9]; [11],without affecting
same,time beneficial effect maintained after the last dose,"[9]; SNI model, 50 mg/kg",48 h
same,CFA-induced heat hyperalgesia,[10]; 20 mg/kg daily oral gavage,no effect
same,heat sensitivity of naïve animals,[10]; naïve animals,did not affect
